Assay results as given in patent US12122750B2, “AT2R antagonists and uses thereof” (Eli Lilly and Company, priority 2022, dated 2024).
Values belong to the compound of their own block, whether it stands above or below them.

Key:
[1] = Plasma concentration of test compound in the receptor occupancy study; type: in vivo, Sprague Dawley rats; conditions: rat
Procedure: Twenty male Sprague Dawley rats (140-150 gms, Envigo) were maintained under controlled laboratory conditions on a 12 hr light cycle with ad lib access to food and water. On the morning of the experiment, rats were orally dosed with vehicle (1% (w/v) hydroxyethylcellulose, 0.25% (w/v) polysorbate 80, 0.05% (v/v) antifoam 1510-US in purified water) or appropriate doses of test compound (5 mL/kg, n=4 rats/group) using the same vehicle. Following a pre-determined survival time, plasma and adrenals were collected and frozen at −80° C. until analyzed. Frozen 20 μm sections of an adrenal from each animal were collected onto gelatin-coated slides and stored at −80° C. Autoradiography to detect AT2R occupancy (RO) was conducted under cold conditions using methods modified from F. M. J. Heemskerk, et al, Brain Research 677 (1995) 29-38. Total binding was defined by 0.3 nM ^125I-CGP42112 (selective AT2R agonist, Perkin Elmer, Inc) with the addition of 10 μM unlabeled AngII used to define non-specific binding. Following exposure to a phosphoimager plate (BAS TR2025, GE Healthcare), the bound radioactivity is calculated with use of MCID software (Imaging Research, Inc) and calibrated ^125I standards (American Radiolabeled Chemicals, Inc). The specific ligand binding for each animal is calculated by subtracting the non-specific binding from the total bound.

[2] = biological target: recombinant human angiotensin-II receptor subtype I (hAT1R) (Homo sapiens (Human), UniProt P30556); test: Competitive radioligand binding assay (SPA), hAT1R/CHO membranes; conditions: [125I]-Tyr4-Angiotensin-II, read-out: AT1R Ki
Procedure: Membranes hATIR/CHO were Purchased from PerkinElmer, Inc.
Cellular membranes prepared from Chinese hamster ovary (CHO) cells which expressed recombinant human angiotensin-II receptor subtype I (hAT1R), were purchased from PerkinElmer (Catalog Number ES-072-M400UA).
(§1) Receptor Binding Protocol
(§2) The assays were performed with a scintillation proximity assay (SPA) method using polyvinyltoluene (PVT) wheat germ agglutinin-coupled SPA beads (Perkin Elmer Cat. #RPNQ0001). Assay buffer containing BSA (50 mM Tris-HCl, pH 7.5, 150 mM NaCl, 0.1% w/v fatty-acid free BSA) was used for preparing radioligand, membrane and SPA bead reagent dilution to working stock concentrations. Reference control and test compounds were diluted to obtain ten-point concentration response curves using a four-fold serial dilution protocol onto assay plates, dispensed acoustically from DMSO stock using automated ECHO instrument technology (Labcyte, Inc.). Concentration response curves were routinely generated with the highest final assay concentration for the reference angiotensin-II control at 50 nM, and the highest final assay concentration for the test compounds at 50 μM. […] The hAT2R membrane was combined with PVT-WGA SPA beads to obtain a final assay concentration of 0.25 μg/well hAT2R membrane+0.1 mg/well PVT-WGA SPA bead. And the hAT1R membrane PVT-WGA SPA bead final concentrations was 0.5 μg/well hAT1R membrane+0.1 mg/well PVT-WGA SPA bead. […] For all assays, radioligand addition was followed by the addition of membrane-SPA bead mixture, i.e., the hAT2R membrane-SPA bead mixture (30 μL), the rAT2R membrane-SPA bead mixture, or the AT1R membrane-SPA bead mixture (30 μL) into the assay plate. All dispensing steps were added using a Multiflo FX (Biotek, Inc.) bulk dispensing instrument. After reagent addition steps, assay plates were sealed, and plate contents mixed for one minute on a benchtop micro-plate shaker. Following a 10-hour incubation at room temperature to allow for bead settling and radioligand binding, bound radioactivity was quantitated using a Microbeta Trilux scintillation counter (Perkin Elmer) and expressed as counts per minute (CPM). The unlabeled angiotensin-II control was included on each plate as an experimental assay reference.
(§3) Compounds were tested in a 10-point concentration response curve (CRC) format, with each plate containing the positive control angiotensin-II positive reference compound, and experimental compounds. Maximum binding response (Max) was determined in 32 control wells per plate using assay buffer treatment only, and the minimum binding controls or nonspecific binding response (Min) was also determined in 32 wells per plate by the treatment with 50 nM angiotensin-II. All test sample concentration responses were normalized to the control response and calculated as a percent of the maximal response after correcting for nonspecific binding as shown below: % Specific inhibition=100%−[(CPM−Min)/(Max−Min)×100%]
(§4) Percent specific binding (y-axis) was plotted versus the log concentration of compound (x-axis).
Binding affinities for compounds of the present disclosure were determined according to the assay described herein.
Binding affinities for compounds of the present disclosure were determined according to the assay described above.

[3] = biological target: recombinant human angiotensin-II receptor subtype 2 (hAT2R) (Homo sapiens (Human), UniProt P50052); test: Competitive radioligand binding assay (SPA), hAT2R HEK293 membranes; conditions: [125I]-Tyr4-Angiotensin-II, read-out: AT2R Ki
In short: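 SPA competition binding on membranes from HEK293 cells stably transfected with hAT2R (0.25 μg/well, with 0.1 mg/well PVT-WGA beads) in 50 mM Tris-HCl pH 7.5, 150 mM NaCl, 0.1% fatty-acid-free BSA. Ten-point four-fold dilution curves ran from 50 μM top final concentration. Bound radioactivity was counted (CPM) after 10 h at room temperature.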

[4] = biological target: T1, AT2R (Rattus norvegicus (Rat), UniProt P35351); test: AT2R ex vivo autoradiography receptor occupancy in rat adrenal sections after oral dosing; parameters: species or system Sprague Dawley rats; conditions: for IC50 / IC80: plasma concentration plotted vs % receptor occupancy, rat; for receptor occupancy at 10 mg/kg: oral dose 10 mg/kg; for receptor occupancy at 30 mg/kg: oral dose 30 mg/kg; for receptor occupancy at 100 mg/kg: oral dose 100 mg/kg; for ex vivo IC50 (TER) / ex vivo IC80 (TER): rat receptor occupancy; for receptor occupancy at 3 mg/kg: oral dose 3 mg/kg
Procedure: The ability for a compound to engage its target may be measured by determining compound's receptor occupancy. An ex vivo autoradiography assay was conducted as described herein.
Twenty male Sprague Dawley rats (140-150 gms, Envigo) were maintained under controlled laboratory conditions on a 12 hr light cycle with ad lib access to food and water. […] Following a pre-determined survival time, plasma and adrenals were collected and frozen at −80° C. until analyzed. Frozen 20 μm sections of an adrenal from each animal were collected onto gelatin-coated slides and stored at −80° C. […] The specific ligand binding for each animal is calculated by subtracting the non-specific binding from the total bound.

[5] = biological target: rAT2R (Rattus norvegicus (Rat), UniProt P35351); test: Rat binding affinity, competitive radioligand binding assay (SPA), rAT2R HEK293 membranes; conditions: rat AT2R
Procedure: Membrane Preparation Protocol (hAT2R HEK293 and rAT2R HEK293)
as §1, §2, §3, §4

[6] = biological target: T1, AT2R; test: Inhibition of C21-induced increase in dermal blood flow (laser Doppler imaging); type: in vivo, Sprague Dawley rats

recombinant human angiotensin-II receptor subtype I (hAT1R), sequence (P30556 whole entry): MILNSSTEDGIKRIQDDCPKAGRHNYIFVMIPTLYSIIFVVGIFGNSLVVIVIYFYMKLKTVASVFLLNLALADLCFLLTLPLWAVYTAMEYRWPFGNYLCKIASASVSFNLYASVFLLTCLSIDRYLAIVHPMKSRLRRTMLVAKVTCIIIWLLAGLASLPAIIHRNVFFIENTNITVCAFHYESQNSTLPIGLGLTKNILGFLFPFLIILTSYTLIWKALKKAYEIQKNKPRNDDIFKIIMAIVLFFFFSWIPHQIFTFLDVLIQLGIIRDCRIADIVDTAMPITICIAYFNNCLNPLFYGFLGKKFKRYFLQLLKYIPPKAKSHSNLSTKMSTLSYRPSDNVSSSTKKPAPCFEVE
recombinant human angiotensin-II receptor subtype 2 (hAT2R), sequence (P50052 whole entry): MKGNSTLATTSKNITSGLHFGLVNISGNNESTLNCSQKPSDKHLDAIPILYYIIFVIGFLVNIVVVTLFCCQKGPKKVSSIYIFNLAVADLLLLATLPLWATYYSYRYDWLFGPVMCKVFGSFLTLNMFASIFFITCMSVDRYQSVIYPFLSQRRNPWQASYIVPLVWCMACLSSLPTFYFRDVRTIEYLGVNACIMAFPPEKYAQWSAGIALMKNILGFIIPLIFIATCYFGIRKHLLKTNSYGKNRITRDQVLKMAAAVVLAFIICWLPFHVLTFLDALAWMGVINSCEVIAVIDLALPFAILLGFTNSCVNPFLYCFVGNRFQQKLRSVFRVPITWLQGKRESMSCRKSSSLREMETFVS
T1 sequence (P35351 whole entry): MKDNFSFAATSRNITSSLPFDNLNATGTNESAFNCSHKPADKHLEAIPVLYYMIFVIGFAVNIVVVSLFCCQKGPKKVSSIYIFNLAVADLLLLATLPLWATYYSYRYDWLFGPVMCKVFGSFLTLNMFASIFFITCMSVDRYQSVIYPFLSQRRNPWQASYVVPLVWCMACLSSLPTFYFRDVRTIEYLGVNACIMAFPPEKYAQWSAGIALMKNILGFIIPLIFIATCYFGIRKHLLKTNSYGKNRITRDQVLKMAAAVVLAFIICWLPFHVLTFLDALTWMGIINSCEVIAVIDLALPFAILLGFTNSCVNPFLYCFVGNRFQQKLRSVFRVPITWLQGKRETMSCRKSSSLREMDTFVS
rAT2R, sequence (P35351 whole entry): as above

Structure (SMILES): CN(C(=O)N1CCC(CC(=O)N(c2ccccc2)c2ccccc2)(C(=O)O)CC1)c1ccc(F)cc1 [Example 2, 1-[(4-fluorophenyl)-methyl-carbamoyl]-4-[2-oxo-2-(N-phenylanilino)ethyl]piperidine-4-carboxylic acid]
[plasma, free, nM] ([1]; oral dose 0.01 mg/kg): 0.0697 nM
[plasma, free, nM] ([1]; oral dose 0.03 mg/kg): 0.0403 nM
[plasma, free, nM] ([1]; oral dose 0.3 mg/kg): 0.153 nM
[plasma, free, nM] ([1]; oral dose 3 mg/kg): 0.772 nM
Ki [2]: 37300 nM

Structure (SMILES): CN(C(=O)N1CCC(CC(=O)N(c2cccc(F)c2)C2CCCC(F)(F)C2)(C(=O)O)CC1)c1ccccc1 (racemic) [Example 53, 4-[2-(N-(3,3-difluorocyclohexyl)-3-fluoro-anilino)-2-oxo-ethyl]-1-[methyl(phenyl)carbamoyl]piperidine-4-carboxylic acid]
Ki [3]: 0.342 nM
Ki [2]: 37300 nM

Structure (SMILES): CN(C(=O)N1CCC(CC(=O)N(c2ccccc2)c2ccc(F)cc2)(C(=O)O)CC1)c1ccc(F)cc1 [compound 30, 4-[2-(N-(4-fluorophenyl)anilino)-2-oxo-ethyl]-1-[(4-fluorophenyl)-methyl-carbamoyl]piperidine-4-carboxylic acid]
receptor occupancy at 0.01 mg/kg ([4]; rat adrenal, oral dose 0.01 mg/kg, read-out: % RO): 30.4%
receptor occupancy at 0.03 mg/kg ([4]; rat adrenal, oral dose 0.03 mg/kg, read-out: % RO): 3.46%
receptor occupancy at 0.3 mg/kg ([4]; rat adrenal, oral dose 0.3 mg/kg, read-out: % RO): 45.6%
receptor occupancy at 3 mg/kg ([4]; rat adrenal, read-out: % RO): 88.7%
Ki [5]: 0.6 nM

Structure (SMILES): CC(C)(C(=O)N1CCC(CC(=O)N(c2ccccc2)C2CCCC(F)(F)C2)(C(=O)O)CC1)c1ccccc1F (racemic) [Example 67, 4-[2-(N-(3,3-difluorocyclohexyl)anilino)-2-oxo-ethyl]-1-[2-(2-fluorophenyl)-2-methyl-propanoyl]piperidine-4-carboxylic acid]
Ki [3]: 2.31 nM
Ki [2]: 37300 nM

Structure (SMILES): O=C(CC1(C(=O)O)CCN(C(=O)C2(c3ccccc3F)CC2)CC1)N(c1ccccc1)C1CCCC(F)(F)C1 (racemic) [Example 66, 4-[2-(N-(3,3-difluorocyclohexyl)anilino)-2-oxo-ethyl]-1-[1-(2-fluorophenyl)cyclopropanecarbonyl]piperidine-4-carboxylic acid]
Ki [3]: 0.619 nM
Ki [2]: 37300 nM

Structure (SMILES): CCCCCN(C)C(=O)N1CCC(CC(=O)N(c2ccccc2)c2ccccc2)(C(=O)O)CC1 [Example 1, 1-[methyl(pentyl)carbamoyl]-4-[2-oxo-2-(N-phenylanilino)ethyl]piperidine-4-carboxylic acid]
[plasma, free, nM] ([1]; oral dose 3 mg/kg): 0.729 nM
[plasma, free, nM] ([1]; oral dose 10 mg/kg): 2.25 nM
[plasma, free, nM] ([1]; oral dose 30 mg/kg): 6.42 nM
[plasma, free, nM] ([1]; oral dose 100 mg/kg): 10.4 nM
IC50 [4]: 5.64 nM
IC80 [4]: 22.6 nM
receptor occupancy at 3 mg/kg ([4]; rat adrenal, read-out: % RO): 23.4%
receptor occupancy at 10 mg/kg ([4]; rat adrenal, read-out: % RO): 44.6%
receptor occupancy at 30 mg/kg ([4]; rat adrenal, read-out: % RO): 41.6%
receptor occupancy at 100 mg/kg ([4]; rat adrenal, read-out: % RO): 54.6%
ex vivo IC50 (TER) [4]: 0.200 TER
ex vivo IC80 (TER) [4]: 0.800 TER
Ki [5]: 28.2 nM

Structure (SMILES): O=C(N1CCC(CC(=O)N(c2ccccc2)C2CCCC(F)(F)C2)(C(=O)O)CC1)N1CCc2ccccc21 (racemic) [Example 35, 4-[2-(N-(3,3-difluorocyclohexyl)anilino)-2-oxo-ethyl]-1-(indoline-1-carbonyl)piperidine-4-carboxylic acid]
Ki [3]: 2.79 nM
Ki [2]: 37300 nM

Structure (SMILES): N#Cc1ccc2c(c1)N(C(=O)N1CCC(CC(=O)N(c3ccccc3)C3CCCC(F)(F)C3)(C(=O)O)CC1)CC2 (racemic) [Example 47, 1-(6-cyanoindoline-1-carbonyl)-4-[2-(N-(3,3-difluorocyclohexyl)anilino)-2-oxo-ethyl]piperidine-4-carboxylic acid]
Ki [3]: 1.34 nM
Ki [2]: 37300 nM

Second part, the compound after the results:

[plasma, free, nM] ([1]; oral dose 1 mg/kg): 6.39 nM
[plasma, free, nM] ([1]; oral dose 3 mg/kg): 18.9 nM
[plasma, free, nM] ([1]; oral dose 30 mg/kg): 6.28 nM
[plasma, free, nM] ([1]; oral dose 100 mg/kg): 15.7 nM
IC50 [4]: 0.483 nM
IC80 [4]: 3.03 nM
receptor occupancy at 10 mg/kg ([4]; rat adrenal, read-out: % RO): 17.3%
receptor occupancy at 30 mg/kg ([4]; rat adrenal, read-out: % RO): 84.7%
receptor occupancy at 100 mg/kg ([4]; rat adrenal, read-out: % RO): 93.7%
ex vivo IC50 (TER) [4]: 0.108 TER
ex vivo IC80 (TER) [4]: 0.678 TER
Ki [5]: 4.47 nM
inhibition at 1 mg/kg ([6]; dose 1 mg/kg, C21-induced increase in dermal blood flow): 7.8%
inhibition at 3 mg/kg ([6]; dose 3 mg/kg, C21-induced increase in dermal blood flow): 47.2%
inhibition at 10 mg/kg ([6]; dose 10 mg/kg, C21-induced increase in dermal blood flow): 67.6%
inhibition at 30 mg/kg ([6]; C21-induced increase in dermal blood flow): 86.9%
inhibition at 30 mg/kg ([6]; second, unlabelled column under % Inhibition): 97.3%
Structure (SMILES): COc1ccc2c(c1OCc1ccccc1)C[C@@H](C(=O)O)N(C(=O)C(c1ccccc1)c1ccccc1)C2 [EMA401, Olodanrigan, reference compound]

Ki [3]: 1.28 nM
IC50 [4]: 1.58 nM
IC80 [4]: 3.82 nM
ex vivo IC50 (TER) [4]: 2.358 TER
ex vivo IC80 (TER) [4]: 5.701 TER
Ki [5]: 0.67 nM
Ki [2]: > 49900 nM
Structure (SMILES): O=C(CC1(C(=O)O)CCN(c2ccccn2)CC1)N(c1ccccc1)C1CCCC(F)(F)C1 (single isomer, unassigned) [Example 74B, 4-(2-((3,3-difluorocyclohexyl)(phenyl)amino)-2-oxoethyl)-1-(pyridin-2-yl)piperidine-4-carboxylic acid]

Ki [3]: 1.03 nM
Ki [2]: 37300 nM
Structure (SMILES): O=C(N1CCC(CC(=O)N(c2ccccc2)C2CCCC(F)(F)C2)(C(=O)O)CC1)N1CCc2ccccc21 (single isomer, unassigned) [Example 35B, 4-[2-(N-(3,3-difluorocyclohexyl)anilino)-2-oxo-ethyl]-1-(indoline-1-carbonyl)piperidine-4-carboxylic acid]
